Laboratory results: patent publication US7411069B2 (Hypnion, Inc., priority 2003, dated 2008)

Experiments:
Histamine, H1 = Histamine, H1 (Bos taurus, UniProt P30546); assay: Binding specificity panel; details: 1.0E−6; average N=2
Excerpt: The percentage inhibition (average; N=2) for these receptors is shown below in Table 12.
Values in Table 12 are expressed as percentage inhibition of specific binding, and these values represent the average of replicate tubes at each of the concentrations tested.

male Wistar rats = assay: SCORE-2000 sleep-wakefulness, locomotor activity and body temperature monitoring
H1 histamine receptor = molecular target: T1, H1 histamine receptor (Bos taurus, UniProt P30546); assay: H1 binding assay ([3H]pyrilamine displacement); set-up: species or system bovine; details: average N=2
T1 construct: the receptors were obtained from bovine cerebellar membrane tissue; from tissue; host or cells: bovine cerebellar membranes
T1 sequence (P30546 whole entry): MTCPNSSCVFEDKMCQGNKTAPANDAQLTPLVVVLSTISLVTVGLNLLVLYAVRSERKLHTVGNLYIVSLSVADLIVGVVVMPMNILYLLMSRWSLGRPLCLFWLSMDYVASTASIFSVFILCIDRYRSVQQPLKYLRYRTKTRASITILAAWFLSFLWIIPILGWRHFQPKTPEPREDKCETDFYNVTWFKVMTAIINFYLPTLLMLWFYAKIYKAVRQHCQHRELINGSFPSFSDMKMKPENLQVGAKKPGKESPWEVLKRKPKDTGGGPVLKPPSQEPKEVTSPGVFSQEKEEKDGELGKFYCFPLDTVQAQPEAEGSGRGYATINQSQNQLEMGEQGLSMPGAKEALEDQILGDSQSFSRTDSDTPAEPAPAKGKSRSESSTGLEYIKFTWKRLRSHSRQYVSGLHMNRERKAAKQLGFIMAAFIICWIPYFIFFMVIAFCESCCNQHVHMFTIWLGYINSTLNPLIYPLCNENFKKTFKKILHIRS

M3 muscarinic receptor = molecular target: T2, M3 muscarinic receptor (Homo sapiens, UniProt P20309); assay: M3 binding assay ([3H]-scopolamine, N-methyl chloride displacement); details: average N=2
T2 construct: purchased PerkinElmer, Inc., Wellesley, Mass; host or cells: CHO cells
T2 sequence (P20309 whole entry): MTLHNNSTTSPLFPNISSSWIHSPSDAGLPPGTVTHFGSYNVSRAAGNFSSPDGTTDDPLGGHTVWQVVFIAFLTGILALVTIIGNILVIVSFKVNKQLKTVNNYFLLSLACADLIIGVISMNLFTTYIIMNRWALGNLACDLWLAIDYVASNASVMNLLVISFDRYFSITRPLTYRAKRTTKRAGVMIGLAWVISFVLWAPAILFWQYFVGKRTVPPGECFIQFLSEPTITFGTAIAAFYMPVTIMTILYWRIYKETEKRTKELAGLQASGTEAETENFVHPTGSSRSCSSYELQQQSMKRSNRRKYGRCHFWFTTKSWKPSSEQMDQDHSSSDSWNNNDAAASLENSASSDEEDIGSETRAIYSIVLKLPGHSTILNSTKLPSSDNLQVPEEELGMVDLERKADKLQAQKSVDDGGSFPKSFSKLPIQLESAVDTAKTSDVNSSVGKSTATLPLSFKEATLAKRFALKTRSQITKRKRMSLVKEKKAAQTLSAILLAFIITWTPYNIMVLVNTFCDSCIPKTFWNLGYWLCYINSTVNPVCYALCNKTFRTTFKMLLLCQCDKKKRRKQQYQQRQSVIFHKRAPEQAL

Histamine, H1, sequence (P30546 whole entry): as the sequence (P30546 whole entry) above

Structure (SMILES): CC(CC(=O)O)N1CCC(=C2c3ccc(F)cc3COc3ccccc32)CC1 (stereo not shown) [Compound 37]
- percentage inhibition of specific binding (Histamine, H1): 23.13%
- REM inhibition (male Wistar rats; 10 mg/kg): did not produce any
- rebound insomnia (male Wistar rats; 10 mg/kg): did not produce any
- reduction in body temperature (male Wistar rats; 10 mg/kg): no disproportional reduction
- reduction in locomotor activity (LMA) (male Wistar rats; 10 mg/kg): no disproportional reduction
- Cumulative NREM sleep time increase, adjusted for baseline and relative to vehicle (male Wistar rats; 10 mg/kg PO, CT-18): 53 min
- absolute average sleep bout (male Wistar rats; 10 mg/kg PO, CT-18): 9 min
- average sleep bout length increase, adjusted for baseline and relative to vehicle (male Wistar rats; 10 mg/kg PO, CT-18): 5.3 min
- peak NREM sleep time (male Wistar rats; 10 mg/kg PO, CT-18): 64 % per hour
- body temperature (male Wistar rats; 30 mg/kg): unacceptable drop in body temperature
- reduction in LMA (male Wistar rats; 30 mg/kg): no disproportional reduction
- Cumulative NREM sleep time increase, adjusted for baseline and relative to vehicle (male Wistar rats; 30 mg/kg PO, CT-18): 62 min
- absolute average sleep bout (male Wistar rats; 30 mg/kg PO, CT-18): 9 min
- absolute longest sleep bout post-treatment (male Wistar rats; 30 mg/kg PO, CT-18): 25 min
- average sleep bout length increase, adjusted for baseline and relative to vehicle (male Wistar rats; 30 mg/kg PO, CT-18): 5.6 min
- peak NREM sleep time (male Wistar rats; 30 mg/kg PO, CT-18): 72 % per hour
- REM inhibition (male Wistar rats; 30 mg/kg, CT-18): did not produce any appreciable REM inhibition
- % Inhibition, H1 (H1 histamine receptor; concentration 1.0E−5): 95.79%
- % Specific Binding, H1 (H1 histamine receptor; concentration 1.0E−5): 3.21%
- % Inhibition, H1 (H1 histamine receptor; concentration 1.0E−6): 93.75%
- % Specific Binding, H1 (H1 histamine receptor; concentration 1.0E−6): 6.25%
- % Inhibition, H1 (H1 histamine receptor; concentration 1.0E−7): 60.82%
- % Specific Binding, H1 (H1 histamine receptor; concentration 1.0E−7): 39.18%
- % Inhibition, H1 (H1 histamine receptor; concentration 1.0E−8): 8.60%
- % Specific Binding, H1 (H1 histamine receptor; concentration 1.0E−8): 91.40%
- % Inhibition, H1 (H1 histamine receptor; concentration 1.0E−9): 2.99%
- % Specific Binding, H1 (H1 histamine receptor; concentration 1.0E−9): 97.01%
- % Specific Binding, H1 (H1 histamine receptor; concentration 3.0E−6): 6.74%
- % Inhibition, H1 (H1 histamine receptor; concentration 3.0E−7): 81.03%
- % Specific Binding, H1 (H1 histamine receptor; concentration 3.0E−7): 18.97%
- % Inhibition, H1 (H1 histamine receptor; concentration 3.0E−8): 30.37%
- % Specific Binding, H1 (H1 histamine receptor; concentration 3.0E−8): 69.53%
- % Inhibition, M3 (M3 muscarinic receptor; concentration 1.0E−5): 4.27%
- % Specific Binding, M3 (M3 muscarinic receptor; concentration 1.0E−5): 95.73%
- % Inhibition, M3 (M3 muscarinic receptor; concentration 1.0E−6): 0.79%
- % Specific Binding, M3 (M3 muscarinic receptor; concentration 1.0E−6): 99.21%
- % Inhibition, M3 (M3 muscarinic receptor; concentration 1.0E−7): 5.85%
- % Specific Binding, M3 (M3 muscarinic receptor; concentration 1.0E−7): 93.15%
- % Inhibition, M3 (M3 muscarinic receptor; concentration 1.0E−8): −8.34%
- % Specific Binding, M3 (M3 muscarinic receptor; concentration 1.0E−8): 108.34%
- % Inhibition, M3 (M3 muscarinic receptor; concentration 1.0E−9): −0.65%
- % Specific Binding, M3 (M3 muscarinic receptor; concentration 1.0E−9): 100.65%
- % Specific Binding, M3 (M3 muscarinic receptor; concentration 3.0E−6): 94.59%
- % Specific Binding, M3 (M3 muscarinic receptor; concentration 3.0E−7): 94.45%
- % Inhibition, M3 (M3 muscarinic receptor; concentration 3.0E−8): 6.99%
- % Specific Binding, M3 (M3 muscarinic receptor; concentration 3.0E−8): 93.01%
